ChEMBL document CHEMBL3217605, “Synthesis, microbial transformation, and pharmacological evaluation of 4,5-dihydronaphtho[2,1-b]furan-2-ones and related analogues” (Medchemcomm, 2013)
Active and inactive are the calls of the source. No cut-off for these calls is given here.

Columns and labels:
[1] = system: MDA-MB-231; assay: Cytotoxicity against human MDA-MB-231 cells at 10 to 30 uM; format: cell-based; settings: mda-mb-231, 30 µM
[2] = system: MDA-MB-231; assay: Antimigratory activity against human MDA-MB-231 cells assessed cell migration level at 30 uM by wound healing assay; format: functional
[3] = system: MDA-MB-231; assay: Antimigratory activity against human MDA-MB-231 cells assessed cell migration level at 10 uM by wound healing assay; format: functional
[4] = system: Microglia; assay: Anti-neuroinflammatory activity in LPS-induced activated rat Microglia cells assessed as reduction in TXB2 release at 10 uM; format: functional
[5] = system: Microglia; assay: Anti-neuroinflammatory activity in LPS-induced activated rat Microglia cells assessed as reduction in super oxide anion radical generation at 10 uM; format: functional
[6] = Toxicity in LPS-induced activated rat Microglia cells assessed as LDH release at 0.1 to 10 uM
[7] = Toxicity in LPS-induced activated rat Microglia cells assessed as LDH release at 10 uM
[8] = system: MDA-MB-468; assay: Growth inhibition of human MDA-MB-468 cells assessed as cell growth at 10 uM after 48 hrs by SRB assay; format: functional; settings: MDA-MB-468, 48 h, read-out: Activity
[9] = system: T47D; assay: Growth inhibition of human T47D cells assessed as cell growth at 10 uM after 48 hrs by SRB assay; format: functional; settings: read-out: Activity
[10] = system: MCF7; assay: Growth inhibition of human MCF7 cells assessed as cell growth at 10 uM after 48 hrs by SRB assay; format: functional; settings: MCF7, 48 h, read-out: Activity
[11] = Growth inhibition of human UACC62 cells assessed as cell growth at 10 uM after 48 hrs by SRB assay; format: functional; settings: UACC-62, 48 h, read-out: Activity
[12] = system: SK-MEL-5; assay: Growth inhibition of human SK-MEL-5 cells assessed as cell growth at 10 uM after 48 hrs by SRB assay; format: functional; settings: SK-MEL-5, 48 h, read-out: Activity
[13] = system: M14; assay: Growth inhibition of human M14 cells assessed as cell growth at 10 uM after 48 hrs by SRB assay; format: functional; settings: M14, 48 h, read-out: Activity
[14] = system: Malme-3M; assay: Growth inhibition of human MALME-3M cells assessed as cell growth at 10 uM after 48 hrs by SRB assay; format: functional; settings: read-out: Activity
[15] = system: PC-3; assay: Growth inhibition of human PC3 cells assessed as cell growth at 10 uM after 48 hrs by SRB assay; format: functional; settings: PC-3, 48 h, read-out: Activity
[16] = system: RPMI-8226; assay: Growth inhibition of human RPMI8226 cells assessed as cell growth at 10 uM after 48 hrs by SRB assay; format: functional; settings: RPMI-8226, 48 h, read-out: Activity
[17] = system: K562; assay: Growth inhibition of human K562 cells assessed as cell growth at 10 uM after 48 hrs by SRB assay; format: functional; settings: K562, 48 h, read-out: Activity
[18] = system: HL-60(TB); assay: Growth inhibition of human HL-60(TB) cells assessed as cell growth at 10 uM after 48 hrs by SRB assay; format: functional; settings: HL-60, 48 h, read-out: Activity
[19] = Growth inhibition of human NCI60 cells assessed as mean cell growth at 10 uM after 48 hrs by SRB assay; format: functional; design: scale not given: the % may be the effect or the level left
[20] = Anti-neuroinflammatory activity in LPS-induced activated rat Microglia cells assessed as reduction in super oxide anion radical generation; format: functional
[21] = Anti-neuroinflammatory activity in LPS-induced activated rat Microglia cells assessed as reduction in TXB2 release; format: functional

| Compound | Activity [1] | Activity [2] [%] | Activity [3] [%] | inhibition [4] | inhibition [5] | Activity [6] | further results |
| --- | --- | --- | --- | --- | --- | --- | --- |
| COc1cccc2c1CC[C@@H]1OC(=O)[C@H](C)[C@H]21 | Non-toxic | 68.4 | 87.6 | inactive | inactive | Non-toxic | – |
| COc1ccc2c(c1)C1=C(CO)C(=O)OC1CC2 (centres undefined) | Non-toxic | 61 | 81.8 | inactive | inactive | Non-toxic | – |
| COc1cccc2c1CCC1OC(=O)C(C)=C21 (centres undefined) | – | – | – | – | – | – | Activity [7]: Toxic |
| C=CCN1C(=O)C(c2ccccc2)=C2c3cc(OC)ccc3CCC21 (centres undefined) | Non-toxic | 32.9 | 47.8 | inactive | inactive | Non-toxic | growth at 10 µM [8]: 36.3%; growth at 10 µM [9]: 40.7%; growth at 10 µM [10]: 61.5%; growth at 10 µM [11]: 35.3%; growth at 10 µM [12]: 40.9%; growth at 10 µM [13]: 46.7%; growth at 10 µM [14]: 0.19%; growth at 10 µM [15]: 25.7%; growth at 10 µM [16]: 11.5%; growth at 10 µM [17]: 28.3%; growth at 10 µM [18]: 34.9%; Activity [19]: 59.8%; IC50 [20]: 1000 nM; IC50 [21]: 1000 nM |
| COc1ccc2c(c1)[C@@H]1[C@H](CC2)OC(=O)[C@H]1c1ccccc1 (relative stereo) | Non-toxic | 45.7 | 100 | inactive | inactive | Non-toxic | – |
| NC(=O)Cc1ccccc1 | Non-toxic | 70.4 | 94.5 | inactive | inactive | Non-toxic | – |
| COc1ccc2c(c1)C1=C(c3ccccc3)C(=O)OC1C[C@H]2O (some centres undefined) | Non-toxic | 45.9 | 54.4 | inactive | inactive | Non-toxic | – |
| COc1ccc2c(c1)C1=C(c3ccccc3)C(=O)OC1CC2 (centres undefined) | Non-toxic | 53.2 | 76.7 | – | inactive | Non-toxic | growth at 10 µM [8]: 27.4%; growth at 10 µM [9]: 30.9%; growth at 10 µM [10]: 59.5%; growth at 10 µM [11]: 35.4%; growth at 10 µM [12]: 48.7%; growth at 10 µM [13]: 64.9%; growth at 10 µM [14]: 35.9%; growth at 10 µM [15]: 32%; growth at 10 µM [16]: 18.1%; growth at 10 µM [17]: 42.1%; growth at 10 µM [18]: 53%; Activity [19]: 65.7%; IC50 [21]: 1000 nM |
| COc1ccc2c(c1)[C@@H]1[C@H](CC2)OC(=O)[C@@H]1c1ccccc1 (relative stereo) | Non-toxic | 48.4 | 90.7 | inactive | inactive | Non-toxic | – |
| COc1ccc2c(c1)C1=C(C)C(=O)OC1C[C@H]2O (some centres undefined) | Non-toxic | 42.5 | 51.6 | inactive | inactive | Non-toxic | – |
| COc1ccc2c(c1)C1=C(C)C(=O)OC1CC2 (centres undefined) | Non-toxic | 47.8 | 71.4 | inactive | inactive | Non-toxic | growth at 10 µM [8]: 40.8%; growth at 10 µM [9]: 64.3%; growth at 10 µM [10]: 65.2%; growth at 10 µM [11]: 57.1%; growth at 10 µM [12]: 65.8%; growth at 10 µM [13]: 63.7%; growth at 10 µM [14]: 35.4%; growth at 10 µM [15]: 43%; growth at 10 µM [16]: 20.7%; growth at 10 µM [17]: 54.2%; growth at 10 µM [18]: 74.2%; Activity [19]: 73.9% |
